What all share (experiment): NCI-60 cell line screen, 48 h
For experiment [1], the system named is CAKI-1.
For experiment [2], the system named is CCRF-CEM.
In experiment [3] the test system is DMS-273.
In experiment [4] the test system is HCT-116.
In experiment [5] the test system is HCT-15.
Experiment [6] deals with HOP-62.
Experiment [7] deals with IGROV-1.
Experiment [8] concerns K562.
Experiment [9] relates to KM-20L2.
The test system of experiment [10] is NCI-H522.
Experiment [11] concerns OVCAR-3.
The test system of experiment [12] is OVCAR-4.
In experiment [13] the test system is OVCAR-5.
Experiment [14] relates to RPMI-8226.
The test system of experiment [15] is SF-268.
Experiment [16] concerns SF-539.
The test system of experiment [17] is SNB-78.
Experiment [18] concerns XF498.
Experiment [19] has as its system M14.
In experiment [20] the test system is NCI-H460.

From ChEMBL document CHEMBL1201862, “PubChem BioAssay data set” (2004) come the findings set out here.

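Interpolation was linear, between the two tested concentrations surrounding the appropriate level; five concentrations were tested over 48 hours in 96-well plates. Abbreviation: GI50, concentration required for 50% inhibition of growth.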 The source made the active and inactive calls. Rule as the data show it: active = GI50 up to about 1.1 µM and inactive = higher.

For `N#CCCN(CCC#N)c1ccc(/C=C(\NC(=O)c2cc([N+](=O)[O-])ccc2Cl)C(=O)Nc2ccccc2)cc1`, the GI50 is 62.1 µM (inactive) in [1]; 5.87 µM (inactive) in experiment [2]; 54.2 µM (inactive) in [3]; 78.7 µM (inactive) in [4]; 4.55 µM in [5]; 45.2 µM (inactive) in experiment [6]. Further, the GI50 in [7] was > 100 µM (inactive); in experiment [8] it was 6.82 µM (inactive); in [9] it was > 100 µM (inactive); in [10], 44.2 µM (inactive); in experiment [11], > 100 µM (inactive); in [12], > 100 µM (inactive). The GI50 is 99.8 µM (inactive) in experiment [13]; > 100 µM (inactive) in experiment [14]; 30.8 µM (inactive) in experiment [15]; 49.7 µM (inactive) in experiment [16]; > 100 µM (inactive) in experiment [17]; > 100 µM (inactive) in experiment [18].

For the compound `Cc1cc(O)nc(NN2C(Cl)C(=O)C2c2ccc([N+](=O)[O-])cc2)n1` (configuration not stated), the GI50 in experiment [2] is 2.15 µM (inactive); in experiment [3] it was 8.34 µM (inactive); in experiment [4] it was 9.38 µM (inactive); in [5], 7.52 µM; in experiment [6] it was 7.76 µM (inactive); in experiment [7], 4.03 µM (inactive). Besides, the GI50 in [8] is 3.1 µM (inactive); in [9], 17.1 µM (inactive); in experiment [19], 11 µM (inactive); in experiment [20] it was 4.04 µM (inactive); in experiment [11], 6.53 µM (inactive); in [12], 13.7 µM (inactive). The GI50 in experiment [13] is 25.1 µM (inactive); in [14], 7.35 µM (inactive); in experiment [15], 13.1 µM (inactive); in experiment [16], 10.8 µM (inactive); in experiment [17], 7.36 µM (inactive).

As for `CCCCN1C(=O)NC(Cc2ccccc2)C1=O` (configuration not stated), the GI50 in [1], in [3], in experiment [6], in experiment [9], in experiment [19] and in [20] was > 100 µM (inactive) in each case. The GI50 in experiment [10], in experiment [13], in [15], in [16], in [17] and in [18] was > 100 µM (inactive) in each case.
